The source of these data is patent US20230312491A1, “N-SUBSTITUTED 4-(5-PHENYL-1,3,4-OXADIAZOL-2-YL)ANILINE FOR THE TREATMENT AND PROPHYLAXIS OF HEPATITIS B VIRUS INFECTION” (priority 2020, published 2023).

Type in all cases: cell-based
In one series the test system is HBsAg. Kind of series: PHH natural infection assay, HBsAg (alphalisa). The conditions noted are these: Hepatitis B virus, Hepatocyte, 72 h, read-out: HBsAg IC50. The method, then: (§1) Detailed procedures regarding primary human hepatocyte (PHH) HBV natural infection assay are described as below. One tube of frozen PHH (10 million cells) is thawed in 37° C. water bath and then transferred to 20 mL of PHH thawing medium (Sigma, InVitroGRO HT Medium, Cat. S03319) with gently mixing. The cells were then centrifuged at […] for 5 min, the supernatant was discarded and the tube was refilled with 25 mL of PHH plating medium (Sigma, InVitroGRO CP Medium, Cat. S03317). The tube was shaken very gently to re-suspend all cells, and then 50 µl of cells were transferred to each well 384-well collagen I coated plate with appropriate liquid handling equipment, e.g. Integra VIAFLO384 or Agilent Bravo. The cells were then cultured for 24 hours in a cell incubator. For HBV infection, after PHH attachment on the culture plate, the plating medium was removed and replenished with PHH culture medium containing HBV virus. The PHH culture medium was prepared with Dulbecco’s Modified Eagle Medium (DMEM)/F12 (1: 1 in volume ratio) containing 10% fetal bovine serum (Gibco, Cat.10099141), 5 ng/mL human epidermal growth factor (Gibco, Cat.PHG0311L), 20 ng/mL dexamethasone (Sigma, Cat.D4902-100 mg), 250 ng/mL human recombinant insulin (Gibco, Cat.41400045) and 100 U/mL penicillin. HBV virus at 200 genome equivalent (GE) per cell with 4% PEG8000 (Sigma, Cat.P1458) containing culture medium were added to the PHH culture medium for infection. The cells were then cultured for 24 hours in cell incubator. Then the cell culture supernatant was removed. The HBV-infected PHH were cultured with sandwich culture method with PHH culture medium containing 1% DMSO and 0.25 mg/mL matrix gel for 72 hours. The supernatant was then refreshed with PHH culture medium containing different concentrations of testing compounds for two times with 72-hour interval. At the end of treatment, the supernatant was collected for viral markers measurements, including HBsAg, HBeAg, HBV DNA and cytotoxicity. HBsAg and HBeAg were detected using alphalisa method using their specific antibodies. For HBV DNA detection, HBV DNA Quantitative Fluorescence Diagnostic Kit (Sansure Biotech Inc.) was used following the manufacture’s protocol. Cytotoxicity was determined using Cell Counting Kit-8 (CCK8, Dojindo Molecular Technologies, Inc.).
(§2) The compounds of the present invention were tested for their capacity to inhibit HBsAg and HBeAg as described herein.

Another series relates to HBeAg. In words: PHH natural infection assay, HBeAg (alphalisa). Conditions: Hepatitis B virus, Hepatocyte, 72 h, read-out: HBeAg IC50. The method, then:
as §1, §2

The nature of series [1]: PHH natural infection assay, cytotoxicity (Cell Counting Kit-8). The conditions noted are these: HBV-infected primary human hepatocytes, CCK8. As for the experimental part: as §1

Regarding `O=C(Nc1ccc(-c2nnc(-c3ccccc3)o2)cc1)c1cccnn1` [Example 25, N-[4-(5-phenyl-1,3,4-oxadiazol-2-yl)phenyl]pyridazine-3-carboxamide], the IC50 came to 1.09 µM in the series on HBsAg and 1.27 µM in the series on HBeAg. Also, the CC50 at 144 h in series [1] is more than 100 µM.

Turning to `O=C(Nc1ccc(-c2nnc(-c3ccccc3)o2)cc1)c1ncco1` [Example 26, N-[4-(5-phenyl-1,3,4-oxadiazol-2-yl)phenyl]oxazole-2-carboxamide], the IC50 came to 0.91 µM in the series with HBsAg and 1.42 µM in the series on HBeAg. In series [1], this compound yielded a CC50 at 144 h of more than 100 µM.

For `O=C(Nc1ccc(-c2nnc(-c3ccccc3)o2)cc1)c1nccs1` [Example 27, N-[4-(5-phenyl-1,3,4-oxadiazol-2-yl)phenyl]thiazole-2-carboxamide], the IC50 in the series with HBsAg is 1.52 µM; with HBeAg, 1.71 µM. In series [1], this compound registered a CC50 at 144 h of more than 100 µM.

For `CC(C)(C)C(=O)Nc1ccc(-c2nnc(-c3ccccc3)o2)cc1` [Example 28, 2,2-dimethyl-N-[4-(5-phenyl-1,3,4-oxadiazol-2-yl)phenyl]propanamide], the IC50 in the series on HBsAg was determined as 7.65 µM; in the series with HBeAg, 4.23 µM. The CC50 at 144 h in series [1] was more than 100 µM.

As to `CC(C)(C)CC(=O)Nc1ccc(-c2nnc(-c3ccccc3)o2)cc1` [Example 29, 3,3-dimethyl-N-[4-(5-phenyl-1,3,4-oxadiazol-2-yl)phenyl]butanamide], the IC50 in the series on HBsAg worked out at 5.1 µM; with HBeAg, 9.57 µM. In series [1], this compound displayed a CC50 at 144 h of more than 100 µM.

`Cc1cc(-c2nnc(-c3ccccc3)o2)ccc1N` [Example 30, 2-methyl-4-(5-phenyl-1,3,4-oxadiazol-2-yl)aniline]: the IC50 with HBsAg is 1.43 µM; in the series with HBeAg, 3.21 µM. The CC50 at 144 h in series [1] was more than 100 µM.

Turning to `COc1cc(-c2nnc(-c3ccccc3)o2)ccc1N` [Example 31, 2-Methoxy-4-(5-phenyl-1,3,4-oxadiazol-2-yl)aniline], the figures for the IC50 with HBsAg and in the series with HBeAg were 1.49 µM and 4.17 µM, respectively. This compound yielded a CC50 at 144 h in series [1] of more than 100 µM.

For the compound `Nc1ccc(-c2nnc(-c3ccccc3)o2)cc1F` [Example 32, 2-Fluoro-4-(5-phenyl-1,3,4-oxadiazol-2-yl)aniline], the results for the IC50 in the series on HBsAg and in the series with HBeAg were 2.39 µM and 2.81 µM, respectively. In series [1], the CC50 at 144 h was more than 100 µM.

On to `CN(C)c1ccc(-c2nnc(-c3ccccc3)o2)cc1` [Example 33, N,N-dimethyl-4-(5-phenyl-1,3,4-oxadiazol-2-yl)aniline], for which the IC50 with HBsAg is 7.69 µM; in the series on HBeAg, 91.7 µM. Besides, in series [1], the CC50 at 144 h is more than 100 µM.
